We go through 18 molecules from US10221177B2 (HYDRA BIOSCIENCES, INC., priority 2014, dated 2019).

Usually IC50 stands for the concentration that inhibits the measured activity by half.

SMILES strings stand for the structures. A value given as a limit tells only on which side of the number the result lay.

The target of this assay is human TRPA1 (Homo sapiens (Human), UniProt O75762). Briefly: In vitro inhibition of human TRPA1, whole cell patch configuration. The settings on record: current activation 10 μM AITC, tested concentrations 320 pM to 3.2 μM, read-out: hTRPA1 IC50. The assay is classed as cell-based. The gist of the method: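 Whole-cell patch clamp, bath 150 mM NaCl, 10 mM HEPES, 1 mM EGTA, 3 mM MgCl2, pH 7.4 (sometimes 2 mM CaCl2, 1 mM MgCl2). Currents recorded continuously at −60 mV or by 400 ms ramps from −40 mV holding every 4 s; inward/outward currents taken at −80/80 mV, with controlled-temperature focal perfusion.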
Chain of human TRPA1 (O75762 whole entry, the tested form may be a part): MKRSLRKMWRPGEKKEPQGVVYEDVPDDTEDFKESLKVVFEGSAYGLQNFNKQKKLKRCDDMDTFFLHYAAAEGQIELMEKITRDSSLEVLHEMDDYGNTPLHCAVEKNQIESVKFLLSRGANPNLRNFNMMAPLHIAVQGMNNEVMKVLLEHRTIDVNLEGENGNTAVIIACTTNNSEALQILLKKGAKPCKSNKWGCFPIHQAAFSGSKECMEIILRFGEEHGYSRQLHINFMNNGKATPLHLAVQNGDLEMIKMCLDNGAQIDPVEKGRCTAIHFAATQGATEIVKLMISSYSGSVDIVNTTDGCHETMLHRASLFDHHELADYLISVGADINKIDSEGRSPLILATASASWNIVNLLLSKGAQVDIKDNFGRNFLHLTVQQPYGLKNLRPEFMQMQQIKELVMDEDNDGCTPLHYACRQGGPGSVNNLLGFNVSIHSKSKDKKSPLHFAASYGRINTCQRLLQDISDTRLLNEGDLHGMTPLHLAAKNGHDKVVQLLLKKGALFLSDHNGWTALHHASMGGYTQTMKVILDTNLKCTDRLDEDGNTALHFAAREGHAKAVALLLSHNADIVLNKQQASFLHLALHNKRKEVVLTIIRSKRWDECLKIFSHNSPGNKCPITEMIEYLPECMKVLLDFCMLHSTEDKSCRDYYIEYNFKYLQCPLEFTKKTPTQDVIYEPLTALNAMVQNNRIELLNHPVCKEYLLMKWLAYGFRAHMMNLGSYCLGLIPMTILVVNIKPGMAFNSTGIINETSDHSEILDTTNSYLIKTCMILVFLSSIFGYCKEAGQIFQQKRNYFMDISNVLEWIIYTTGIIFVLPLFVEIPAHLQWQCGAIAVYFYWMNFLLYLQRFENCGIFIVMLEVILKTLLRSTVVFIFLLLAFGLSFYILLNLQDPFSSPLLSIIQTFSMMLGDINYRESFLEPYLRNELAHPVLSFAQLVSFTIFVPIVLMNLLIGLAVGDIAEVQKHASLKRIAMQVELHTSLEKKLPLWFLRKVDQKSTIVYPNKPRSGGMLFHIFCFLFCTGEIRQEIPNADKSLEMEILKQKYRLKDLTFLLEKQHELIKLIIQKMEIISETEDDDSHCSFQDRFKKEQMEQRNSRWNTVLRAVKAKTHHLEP

Take `C[C@@H](C(=O)Nc1cccc(-c2cnc(N3CC4C(C3)C4(F)F)nc2)n1)n1cnc2c1c(=O)n(CC#N)c(=O)n2C` (stereo partly drawn) [Compound 30, (2S)-2-(1-(cyanomethyl)-3-methyl-2,6-dioxo-2,3-dihydro-1H-purin-7(6H)-yl)-N-(6-(2-(6,6-difluoro-3-azabicyclo[3.1.0]hexan-3-yl)pyrimidin-5-yl)pyridin-2-yl)propanamide]: the IC50 worked out at 3 nM.

For the molecule `Cc1cc(Cn2c(=O)c3c(ncn3CC(=O)Nc3cccc(-c4ccc(C(F)(F)F)nc4)n3)n(C)c2=O)no1` [Compound 215, 2-(3-methyl-1-((5-methylisoxazol-3-yl)methyl)-2,6-dioxo-2,3-dihydro-1H-purin-7(6H)-yl)-N-(6′-(trifluoromethyl)-2,3′-bipyridin-6-yl)acetamide], the IC50 was 25 nM.

For `CC#CCn1c(=O)c2c(ncn2[C@@H](C)C(=O)Nc2csc(-c3cnc(N4CC5CC5C4)nc3)n2)n(C)c1=O` (stereo partly drawn) [Compound 145, (2S)—N-(2-(2-(3-azabicyclo[3.1.0]hexan-3-yl)pyrimidin-5-yl)thiazol-4-yl)-2-(1-(but-2-ynyl)-3-methyl-2,6-dioxo-2,3-dihydro-1H-purin-7(6H)-yl)propanamide], the IC50 was 2 nM.

In the case of `C[C@@H](C(=O)Nc1ccnc(-c2cnc(N3CCC[C@@H]3C(F)(F)F)nc2)n1)n1cnc2c1c(=O)n(CC#N)c(=O)n2C` [Compound 49, (S)-2-(1-(cyanomethyl)-3-methyl-2,6-dioxo-2,3-dihydro-1H-purin-7(6H)-yl)-N-(2′-((R)-2-(trifluoromethyl)pyrrolidin-1-yl)-2,5′-bipyrimidin-4-yl)propanamide], the IC50 was 7 nM.

Regarding `CC#CCn1c(=O)c2c(ncn2[C@@H](C)C(=O)Nc2csc(-c3ccc(N4CC5CC5C4)nc3)n2)n(C)c1=O` (stereo partly drawn) [Compound 263, (2S)—N-(2-(6-(3-azabicyclo[3.1.0]hexan-3-yl)pyridin-3-yl)thiazol-4-yl)-2-(1-(but-2-yn-1-yl)-3-methyl-2,6-dioxo-2,3-dihydro-1H-purin-7(6H)-yl)propanamide], the IC50 amounted to 4 nM.

In the case of `CC(=O)Cn1c(=O)c2c(ncn2[C@@H](C)C(=O)Nc2cccc(-c3ccc(N4CC5C(C4)C5(F)F)nc3)n2)n(C)c1=O` (stereo partly drawn) [Compound 65], the IC50 was 8 nM.

Consider `C[C@@H](C(=O)Nc1cncc(-c2ccc(C(F)(F)F)nc2)n1)n1cnc2c1c(=O)n(Cc1ccccn1)c(=O)n2C` [Compound 9, (2S)-2-(3-methyl-2,6-dioxo-1-(pyridin-2-ylmethyl)-1,2,3,6-tetrahydropurin-7-yl)-N-(6-(6-(trifluoromethyl)pyridin-3-yl)pyrazin-2-yl)propanamide], for which the IC50 was found to be 59 nM.

For the molecule `C[C@@H](C(=O)Nc1cncc(-c2cnc(N3CCC[C@@H]3C(F)(F)F)nc2)n1)n1cnc2c1c(=O)n(CC#N)c(=O)n2C` [Compound 40, (S)-2-(1-(cyanomethyl)-3-methyl-2,6-dioxo-2,3-dihydro-1H-purin-7(6H)-yl)-N-(6-(2-((R)-2-(trifluoromethyl)pyrrolidin-1-yl)pyrimidin-5-yl)pyrazin-2-yl)propanamide], the IC50 turned out to be 8 nM.

As for `Cc1noc(Cn2c(=O)c3c(ncn3[C@@H](C)C(=O)Nc3cncc(-c4cnc(C)c(C(F)(F)F)c4)n3)n(C)c2=O)n1` [Compound 132, (S)-2-(3-methyl-1-((3-methyl-1,2,4-oxadiazol-5-yl)methyl)-2,6-dioxo-2,3-dihydro-1H-purin-7(6H)-yl)-N-(6-(6-methyl-5-(trifluoromethyl)pyridin-3-yl)pyrazin-2-yl)propanamide], the IC50 stood at 9 nM.

As for `Cc1cc(Cn2c(=O)c3c(ncn3[C@@H](C)C(=O)Nc3cccc(-c4nc(=O)o[nH]4)n3)n(C)c2=O)no1` [Compound 93, (S)-2-(3-methyl-1-((5-methylisoxazol-3-yl)methyl)-2,6-dioxo-2,3-dihydro-1H-purin-7(6H)-yl)-N-(6-(5-oxo-2,5-dihydro-1,2,4-oxadiazol-3-yl)pyridin-2-yl)propanamide], the IC50 is above 3200 nM.

Consider `CC(=O)Cn1c(=O)c2c(ncn2[C@@H](C)C(=O)Nc2csc(-c3cnc(C)c(Cl)c3)n2)n(C)c1=O` [Compound 81, (S)—N-(2-(5-chloro-6-methylpyridin-3-yl)thiazol-4-yl)-2-(3-methyl-2,6-dioxo-1-(2-oxopropyl)-2,3-dihydro-1H-purin-7(6H)-yl)propanamide], for which the IC50 came to 10 nM.

For the molecule `CC(=O)Cn1c(=O)c2c(ncn2[C@@H](C)C(=O)Nc2cccc(-c3cnc(N4CC5C(C4)C5(F)F)cn3)n2)n(C)c1=O` (stereo partly drawn) [Compound 257, (2S)—N-(6-(5-(6,6-difluoro-3-azabicyclo[3.1.0]hexan-3-yl)pyrazin-2-yl)pyridin-2-yl)-2-(3-methyl-2,6-dioxo-1-(2-oxopropyl)-2,3-dihydro-1H-purin-7(6H)-yl)propanamide], the IC50 was 11 nM.

`Cc1noc(Cn2c(=O)c3c(ncn3CC(=O)Nc3csc(-c4cnc(C(F)(F)F)nc4)n3)n(C)c2=O)n1` [Compound 260, 2-(3-methyl-1-((3-methyl-1,2,4-oxadiazol-5-yl)methyl)-2,6-dioxo-2,3-dihydro-1H-purin-7(6H)-yl)-N-(2-(2-(trifluoromethyl)pyrimidin-5-yl)thiazol-4-yl)acetamide]: the IC50 is 17 nM.

Regarding `Cn1c(=O)n(Cc2ccccn2)c(=O)c2c1ncn2CC(=O)Nc1csc(-c2cnc(C(F)(F)F)nc2)n1` [Compound 191, 2-(3-methyl-2,6-dioxo-1-(pyridin-2-ylmethyl)-2,3-dihydro-1H-purin-7(6H)-yl)-N-(2-(2-(trifluoromethyl)pyrimidin-5-yl)thiazol-4-yl)acetamide], the IC50 was determined as 51 nM.

As to `CCc1cc(NC(=O)Cn2cnc3c2c(=O)n(Cc2cc(C)on2)c(=O)n3C)nc(C(F)(F)F)c1` [Compound 203, N-(4-ethyl-6-(trifluoromethyl)pyridin-2-yl)-2-(3-methyl-1-((5-methylisoxazol-3-yl)methyl)-2,6-dioxo-2,3-dihydro-1H-purin-7(6H)-yl)acetamide], the IC50 came out at 1610 nM.

In the case of `CCC(=O)Cn1c(=O)c2c(ncn2[C@@H](C)C(=O)Nc2cccc(-c3cnc(N4CC5C(C4)C5(F)F)cn3)n2)n(C)c1=O` (stereo partly drawn) [Compound 256, (2S)—N-(6-(5-(6,6-difluoro-3-azabicyclo[3.1.0]hexan-3-yl)pyrazin-2-yl)pyridin-2-yl)-2-(3-methyl-2,6-dioxo-1-(2-oxobutyl)-2,3-dihydro-1H-purin-7(6H)-yl)propanamide], the IC50 came out at 5 nM.

With `Cc1cc(Cn2c(=O)c3c(ncn3CC(=O)Nc3cncc(-c4cnc(C(F)(F)F)c(C)c4)n3)n(C)c2=O)no1` [Compound 229, 2-(3-methyl-1-((5-methylisoxazol-3-yl)methyl)-2,6-dioxo-2,3-dihydro-1H-purin-7(6H)-yl)-N-(6-(5-methyl-6-(trifluoromethyl)pyridin-3-yl)pyrazin-2-yl)acetamide], the IC50 turned out to be 9 nM.

For `CC(=O)Cn1c(=O)c2c(ncn2[C@@H](C)C(=O)Nc2cccc(-c3ccc(C(F)(F)F)nc3)n2)n(C)c1=O` [Compound 2, (S)-2-(3-methyl-2,6-dioxo-1-(2-oxopropyl)-2,3-dihydro-1H-purin-7(6H)-yl)-N-(6′-(trifluoromethyl)-[2,3′-bipyridin]-6-yl)propanamide], the IC50 amounted to 21 nM.
